Experimental findings from patent publication US12065445B2, “CDK2 inhibitors and methods of using the same” (Cedilla Therapeutics, Inc., priority 2021, dated 2024) are described below.

The term IC50 denotes the concentration needed to halve the response being measured.

For the experiment, the system named is Kuramochi cells. The experiment can be described thus: BrdU Cell Proliferation Assay. Format: cell-based. The note with it: read-out: BrdU - KURAMOCHI.1: IC50. An outline of the steps: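 Signal is 450 nm absorbance from a peroxidase anti-BrdU ELISA after a 1-hour BrdU label, background-subtracted and normalized to DMSO-treated wells. Kuramochi cells (2,000 per well) had been exposed to compound for 4 days. Dosing used a 10-point dose response in 3-fold steps.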
As to `CNC(=O)[C@@H](NC(=O)[C@H]1CN(C(=O)c2cnn(Cc3ccccc3)c2)CC12CN(C(=O)[C@H]1CC1(C)C)C2)C(C)(C)SCc1ccccc1` [I-171B], the IC50 was above 10 µM.

On to `C[C@@H]1C[C@H](C)CN(C(=O)[C@@H](NC(=O)C2CN(C(=O)c3cnn(Cc4ccccc4)c3)CC23CN(C(=O)[C@H]2CC2(C)C)C3)[C@@H](C)OCc2ccccc2)C1` (stereo partly drawn) [I-22], for which the half-inhibitory concentration (IC50) was 0.5 to 5 µM.

`C[C@H](NC(=O)[C@@H]1CN(C(=O)c2cnn(Cc3ccccc3)c2)CC12CN(C(=O)[C@H]1CC1(C)C)C2)c1cccc(F)c1` [I-127A]: the half-maximal inhibitory concentration (IC50) is above 10 µM.

As to `CNC(=O)[C@@H](NC(=O)[C@@H]1CN(C(=O)c2cn[nH]c2)CC12CN(C(=O)CC1CC1)C2)[C@@H](C)OCc1ccccc1` [I-41A, (S)—N-((2S,3R)-3-(benzyloxy)-1-(methylamino)-1-oxobutan-2-yl)-2-(2-cyclopropylacetyl)-6-(1H-pyrazole-4-carbonyl)-2,6-diazaspiro[3.4]octane-8-carboxamide], the 50% inhibitory concentration (IC50) is above 10 µM.

In the case of `CNC(=O)[C@@H](NC(=O)[C@@H]1CN(C(=O)c2cnn(Cc3ccccc3)c2)CC12CN(C(=O)[C@H]1CC1(C)C)C2)[C@@H](C)OCC1CCCC1` [I-110A], the half-maximal inhibitory concentration (IC50) lay in the range of 0.5 to 5 µM.

In the case of `CC1(C)C[C@@H]1C(=O)N1CC2(CN(C(=O)c3cnn(Cc4ccccc4)c3)C[C@@H]2C(=O)NCCOCc2ccccc2)C1` [I-96B], the IC50 is above 10 µM.

In the case of `CNC(=O)[C@@H](NC(=O)[C@H]1CN(C(=O)c2cnn(Cc3ccccc3)c2)CC12CN(C(=O)C1(C#N)CC1)C2)[C@@H](C)OCc1ccccc1` [I-73B], the concentration for half-maximal inhibition (IC50) was above 10 µM.

In the case of `CNC(=O)[C@@H](NC(=O)[C@@H]1CN(C(=O)c2c[nH]c3ccccc23)CC12CN(C(=O)[C@H]1CC1(C)C)C2)[C@@H](C)OCc1ccccc1` [I-72A], the half-inhibitory concentration (IC50) was above 10 µM.

For the compound `CNC(=O)[C@@H](NC(=O)[C@H]1CN(C(=O)c2cnc[nH]2)CC12CN(C(=O)[C@H]1CC1(C)C)C2)[C@@H](C)OCc1ccccc1` [I-44B], the concentration for half-maximal inhibition (IC50) is above 10 µM.

With `CNC(=O)[C@@H](NC(=O)[C@H]1CN(C(=O)c2n[nH]c3ccccc23)CC12CN(C(=O)[C@H]1CC1(C)C)C2)[C@@H](C)OCc1ccccc1` [I-112B], the IC50 is above 10 µM.

For `COC(=O)[C@H](CO)NC(=O)[C@H]1CN(C(=O)c2cnn(Cc3ccccc3)c2)CC12CN(C(=O)[C@H]1CC1(C)C)C2` [I-209B], the IC50 is above 10 µM.

For the compound `CNC(=O)[C@@H](NC(=O)[C@H]1CN(C(=O)c2cn[nH]c2)CC12CN(C(=O)CC1CC1)C2)[C@@H](C)OCc1ccccc1` [I-41B], the IC50 is above 10 µM.

Regarding `CNC(=O)[C@@H](NC(=O)[C@@H]1CN(C(=O)c2cncs2)CC12CN(C(=O)[C@H]1CC1(C)C)C2)[C@@H](C)OCc1ccccc1` [I-24A, (S)—N-((2S,3R)-3-(benzyloxy)-1-(methylamino)-1-oxobutan-2-yl)-2-((S)-2,2-dimethylcyclopropane-1-carbonyl)-6-(thiazole-5-carbonyl)-2,6-diazaspiro[3.4]octane-8-carboxamide], the IC50 was above 10 µM.

Consider `CC1(C)C[C@@H]1C(=O)N1CC2(CN(C(=O)c3cnn(Cc4ccccc4)c3)CC2C(=O)NC2CNCCOC2)C1` (stereo partly drawn) [I-245], for which the half-inhibitory concentration (IC50) was above 10 µM.

Turning to `CNC(=O)[C@@H](NC(=O)[C@@H]1CN(C(=O)c2cnn(Cc3ccccc3)c2)CC12CN(C(=O)[C@H]1CC1(C)C)C2)[C@@H](C)OCC1(C(F)(F)F)CC1` [I-205A], the IC50 was above 10 µM.

In the case of `CC1(C)C[C@@H]1C(=O)N1CC2(CN(C(=O)c3cnn(Cc4ccccc4)c3)C[C@H]2C(=O)N2CCO[C@@H](Cc3ccccc3)C2)C1` [I-210], the half-inhibitory concentration (IC50) was above 10 µM.

Consider `CNC(=O)[C@@H](NC(=O)[C@@H]1CN(C(=O)c2cnn(Cc3ccccc3)c2)CC12CN(C(=O)C(C)(C)C)C2)[C@@H](C)OCc1ccccc1` [I-65A], for which the half-inhibitory concentration (IC50) was above 10 µM.

In the case of `CNC(=O)[C@@H](NC(=O)[C@@H]1CN(C(=O)c2cnn(Cc3ccccc3)c2)CC12CN(C(=O)C1(F)CC1)C2)[C@@H](C)OCc1ccccc1` [I-71A], the IC50 is above 10 µM.

Consider `CNC(=O)[C@@H](NC(=O)[C@H]1CN(C(=O)c2cnn(Cc3ccccc3)c2)CC12CN(C(=O)c1ccccc1)C2)[C@@H](C)OCc1ccccc1` [I-26B], for which the IC50 was above 10 µM.

On to `CC1(C)C[C@@H]1C(=O)N1CC2(CN(C(=O)c3cnn(Cc4ccccc4)c3)C[C@H]2C(=O)N2CCO[C@H](Cc3ccccc3)C2)C1` [I-255], for which the IC50 was above 10 µM.

Regarding `CNC(=O)[C@@H](NC(=O)[C@@H]1CN(C(=O)c2cnn(Cc3ccccc3)c2)CC12CN(C(=O)C1(C3CC3)CC1)C2)[C@@H](C)OCc1ccccc1` [I-114A], the IC50 is above 10 µM.

Regarding `CC1(C)C[C@@H]1C(=O)N1CC2(CN(C(=O)c3cnn(Cc4ccccc4)c3)C[C@H]2C(=O)Nc2cccc(Cc3ccccc3)c2)C1` [I-75A], the 50% inhibitory concentration (IC50) lay within 0.5 to 5 µM.

For the compound `CNC(=O)[C@@H](NC(=O)[C@H]1CN(C(=O)c2cn[nH]c2)CC12CN(C(=O)[C@H]1CC1(C)C)C2)[C@@H](C)OCC1CCCCC1` [I-66B], the IC50 was above 10 µM.

Consider `CNC(=O)[C@H](CCCc1ccccc1)NC(=O)[C@H]1CN(C(=O)c2cnn(Cc3ccccc3)c2)CC12CN(C(=O)[C@H]1CC1(C)C)C2` [I-101B], for which the half-maximal inhibitory concentration (IC50) was above 10 µM.

Take `CNC(=O)[C@@H](NC(=O)[C@@H]1CN(C(=O)c2cnn(Cc3ccccc3)c2)CC12CN(C(=O)C1C(C)(C)C1(C)C)C2)[C@@H](C)OCc1ccccc1` [I-89A]: the concentration for half-maximal inhibition (IC50) was above 10 µM.

Take `CCCCC1CC1C(=O)N1CC2(CN(C(=O)c3cnn(Cc4ccccc4)c3)C[C@@H]2C(=O)N[C@H](C(=O)NC)[C@@H](C)OCc2ccccc2)C1` (stereo partly drawn) [I-94B]: the IC50 was above 10 µM.

`CNC(=O)[C@@H](NC(=O)[C@H]1CN(C(=O)c2nccs2)CC12CN(C(=O)[C@H]1CC1(C)C)C2)[C@@H](C)OCC1CCCCC1` [I-146]: the 50% inhibitory concentration (IC50) is above 10 µM.

`CNC(=O)[C@@H](NC(=O)[C@@H]1CN(C(=O)c2scnc2C2CCCC2)CC12CN(C(=O)[C@H]1CC1(C)C)C2)[C@@H](C)OCC1CCCCC1` [I-224B]: the 50% inhibitory concentration (IC50) is above 10 µM.

`CNC(=O)[C@@H](NC(=O)[C@H]1CN(C(=O)c2cnc(C3CC3)s2)CC12CN(C(=O)[C@H]1CC1(C)C)C2)[C@@H](C)OCC1CCCCC1` [I-178B]: the 50% inhibitory concentration (IC50) was above 10 µM.

As for `C[C@@H](OCC1CCCCC1)[C@H](NC(=O)[C@@H]1CN(C(=O)c2cnn(Cc3ccccc3)c2)CC12CN(C(=O)[C@H]1CC1(C)C)C2)C(N)=O` [I-200], the IC50 was in the range of 0.5 to 5 µM.

Take `CN(C(=O)[C@H]1CCCN(C(=O)[C@@H]2CN(C(=O)c3cnn(Cc4ccccc4)c3)CC23CN(C(=O)[C@H]2CC2(C)C)C3)C1)C1CCCCC1` [I-179]: the IC50 was above 10 µM.

In the case of `CNC(=O)[C@@H](NC(=O)[C@@H]1CN(C(=O)c2cnn(Cc3ccccc3)c2)CC12CN(C(=O)[C@H]1CC1(C)C)C2)C(C)(C)S(=O)(=O)Cc1ccccc1` [I-199, (S)-6-(1-benzyl-1H-pyrazole-4-carbonyl)-N—((R)-3-(benzylsulfonyl)-3-methyl-1-(methylamino)-1-oxobutan-2-yl)-2-((S)-2,2-dimethylcyclopropane-1-carbonyl)-2,6-diazaspiro[3.4]octane-8-carboxamide], the concentration for half-maximal inhibition (IC50) is above 10 µM.

With `C[C@@H](OCC1CCCCC1)[C@H](NC(=O)[C@@H]1CN(C(=O)c2cnn(Cc3ccccc3)c2)CC12CN(C(=O)[C@H]1CC1(C)C)C2)C(=O)N1CCC[C@@H](N)C1` [I-218], the IC50 lay within 5 to 10 µM.

For `CCC(CC)C(=O)N1CC2(CN(C(=O)c3cnn(Cc4ccccc4)c3)C[C@@H]2C(=O)N[C@H](C(=O)NC)[C@@H](C)OCc2ccccc2)C1` [I-74B], the half-inhibitory concentration (IC50) was above 10 µM.

Take `CNC(=O)[C@@H](NC(=O)[C@@H]1CN(C(=O)c2cnn(CC3CCOCC3)c2)CC12CN(C(=O)[C@H]1CC1(C)C)C2)[C@@H](C)OCc1ccccc1` [I-95A]: the half-inhibitory concentration (IC50) was above 10 µM.

As to `C[C@@H](OCC1CCCCC1)[C@H](NC(=O)[C@H]1CN(C(=O)c2cnn(Cc3ccccc3)c2)CC12CN(C(=O)[C@H]1CC1(C)C)C2)C(=O)N1CC(C)(C)C1` [I-153B], the IC50 was above 10 µM.

Take `CNC(=O)[C@@H](NC(=O)[C@H]1CN(C(=O)c2cnn(Cc3ccccc3)c2)CC12CN(C(=O)[C@H]1CC1(C)C)C2)[C@@H](C)OCC1CCCCCC1` [I-166B]: the half-inhibitory concentration (IC50) is 0.5 to 5 µM.

Consider `CC1(C)C[C@@H]1C(=O)N1CC2(CN(C(=O)c3cnn(Cc4ccccc4)c3)C[C@H]2C(=O)N[C@H]2CCc3cc(Cl)ccc32)C1` [I-133A], for which the IC50 is above 10 µM.

In the case of `CC1(C)C[C@@H]1C(=O)N1CC2(CN(C(=O)c3cnn(Cc4ccccc4)c3)C[C@H]2C(=O)NC2CCCN(C(=O)c3ccccc3)C2)C1` (stereo partly drawn) [I-59A], the half-maximal inhibitory concentration (IC50) is above 10 µM.

`CNC(=O)[C@@H](NC(=O)[C@H]1CN(C(=O)c2scnc2C2CC2)CC12CN(C(=O)[C@H]1CC1(C)C)C2)[C@@H](C)OCC1CCCCC1` [I-185B]: the IC50 is above 10 µM.

Regarding `CNC(=O)[C@@H](NC(=O)[C@H]1CN(C(=O)c2cnc(C(C)(C)C)s2)CC12CN(C(=O)[C@H]1CC1(C)C)C2)[C@@H](C)OCC1CCCCC1` [I-229B], the IC50 was above 10 µM.

For `CCCCC1CC1C(=O)N1CC2(CN(C(=O)c3cnn(Cc4ccccc4)c3)C[C@H]2C(=O)N[C@H](C(=O)NC)[C@@H](C)OCc2ccccc2)C1` (stereo partly drawn) [I-94A], the half-inhibitory concentration (IC50) was above 10 µM.

With `C[C@@H](OCc1ccccc1)[C@H](NC(=O)C1CN(C(=O)c2cnn(Cc3ccccc3)c2)CC12CN(C(=O)[C@H]1CC1(C)C)C2)C(=O)O` (stereo partly drawn) [I-9, (2S,3R)-2-(6-(1-benzyl-1H-pyrazole-4-carbonyl)-2-((S)-2,2-dimethylcyclopropanecarbonyl)-2,6-diazaspiro[3.4]octane-8-carboxamido)-3-(benzyloxy)butanoic acid], the half-maximal inhibitory concentration (IC50) was above 10 µM.

`CNC(=O)[C@@H](NC(=O)[C@@H]1CN(C(=O)c2cnn(CC3CCN(C(C)=O)CC3)c2)CC12CN(C(=O)[C@H]1CC1(C)C)C2)[C@@H](C)OCc1ccccc1` [I-17A]: the concentration for half-maximal inhibition (IC50) is above 10 µM.

For `Cc1noc([C@H](C)NC(=O)[C@@H]2CN(C(=O)c3cnn(Cc4ccccc4)c3)CC23CN(C(=O)[C@H]2CC2(C)C)C3)n1` [I-158A], the IC50 is above 10 µM.
